{"source": "patent US20130109861A1", "about": "“TELOMERASE INHIBITORS AND A METHOD FOR THE PREPARATION THEREOF” (GOSUDARSTVENNOE UCHEBNO-NAUCHNOE UCHREZHDENIE KHIMICHESKIJJ …, priority 2010, published 2013)", "key": {"telomerase": {"biological_target": "T1, telomerase (Homo sapiens, UniProt O14746)", "T1 construct": "telomeric repeats added to an oligonucleotide by telomerase in the cell extract; endogenous in cells; host or cells: SiHa, C33A, CaSki and HeLa cervical carcinoma cell extracts (CHAPS lysis)", "test": "Inhibition of telomerase activity by TRAP-assay (telomeric repeat amplification, extracts of cervical carcinoma cell lines SiHa, C33A, CaSki, HeLa)", "type": "biochemical", "details": "concentration at which inhibition of telomerase activity is 50%", "procedure": "To test the inhibition of telomerase compounds prepared in this way, we used the method of amplification added telomeric repeats (TRAP-analysis). TRAP-analysis is a standard method for determining the activity of telomerase, due to some modification this method could be semi quantitative. The choice of method for detection of telomerase activity was determined by its wide coverage in the worlds literature, almost sensitivity, as well as the availability of equipment and reagents.\nTelomeric repeats amplification protocol can be divided into three main steps: primer extension, amplification of the resulting product (s) and detection. In step lengthening telomeric repeats added to an oligonucleotide by telomerase in the cell extract. Telomerase recognizes it as a substrate (TS). In step of amplification of extension products of TS oligonucleotide by telomerase false signals may appear due to amplification of telomeres of chromosomes possibly have contained in the cell extract. To avoid this, the 5′-end of the oligonucleotide TS has no telomeric sequence, which prevents it to contact with telomeres, but is recognized as a telomerase substrate. Since human telomerase adds a series repeats with six nucleotides, the resulting lengthening of TS oligonucleotide by telomerase set of DNA fragments that differ in length synthesized. […]"}}}
{"smiles": "C=CCN1C(=O)/C(=C/c2ccccn2)N=C1SCCSC1=N/C(=C\\c2ccccn2)C(=O)N1CC=C", "note": "[Example 3, (5Z,5′Z)-2,2′-(ethan-1,2-diyldisulfanyldiyl)bis(5-(pyridine-2-ylmethylene)-3-allyl-3,5-dihydro-4H-imidazole-4-on)]", "values": [{"measurement": "IC50", "setting": "telomerase", "result": 2, "unit": "µM"}, {"measurement": "melting point", "result": 187, "unit": "°C"}]}
